Measurements reported in patent US4804664A, “Method and pharmaceutical preparation for treating chronic obstructive airway disease and cardiac disease, and intermediates for the preparation of therapeutically active xanthine derivatives” (priority 1978, dated 1989).
“Also recorded” adds a separate entry of the source. Where two headings read alike, the source gives them in different places.

Experiments:
Guinea-Pig heart = experiment: Isolated Guinea-Pig Hearts (Langendorff), chronotropic and inotropic potency; settings: relative to theophylline (= 1); for Guinea-Pig heart Potency ratios of theophylline, chronotrop: cardioacceleration; for Guinea-Pig heart Potency ratios of theophylline, inotrop: inotropic
Procedure: From the bled guinea-pigs, the hearts were immediately removed and perfused with oxygenated Krebs solution at 37° according to Langendorff. The heart was mounted in a thermostatically controlled organ bath (25 ml) containing Krebs solution. A saline-filled, open-end polyethylene catheter was inserted into the right ventricle through the pulmonary artery. The catheter was fixed to the pulmonary artery by a ligature just above the valvular plane. It was connected to a pressure transduser (P23 AC), making it possible to record changes in intraventricular pressure. From these, the contraction frequency was obtained. Drugs were given as single bolus injections into the perfusion solution.
Potency ratios for relaxing effects on isolated bronchial smooth muscle, for cardioacceleration and for i.v. acute toxicity are illustrated. The relation between therapeutic ratios for theophylline and each compound is also calculated (column to the right).

mice [1] = experiment: in vivo; settings: for Ratio i.v. LD50 TA/(.): theophylline relative to compound, Table 2; for tonic convulsions: lethal doses
Procedure: (§1) Male NMRI mice, weighing 20-26 g, starved for 8 hr. were used. The compounds, dissolved in 0.5M NaOH and 0.85% NaCl-solution (pH 10.6-12.1) were administered as follows:
(§2) (a) intravenously, 0.1 ml/10 g at an injection rate of 0.3 ml per minute
(§3) At least seven dose levels, doses increasing in a geometric progression with a factor 1.2, were examined. Each dose was given to 5 animals. […] The position of extremities in dead animals indicated whether they had died in convulsions or not. The LD50 values±standard error were calculated using probit analysis.

in vivo [2] = settings: mouse, in vivo, mice; for LD50 at 336 h: iv, i.v.; for selectivity ratio at 336 h: read-out: Ratio LD50 p.o. / LD50 i.v.
Procedure: as §1, §2, §3

mice [3] = experiment: in vivo; settings: theophylline relative to compound, Table 2
in vivo [4] = settings: mouse, in vivo, po, mice, p.o.
[5] = theophylline therapy, cited from earlier work
[6] = probit analysis, read-out: LD50 ± SE i.v.
[7] = probit analysis, read-out: LD50 ± SE p.o.

Row | Structure (SMILES) | Guinea-Pig heart Potency ratios of theophylline, chronotrop (Guinea-Pig heart) | Guinea-Pig heart Potency ratios of theophylline, inotrop (Guinea-Pig heart) | Ratio i.v. LD50 TA/(.) (mice [1]) | tonic convulsions (mice [1]) | LD50 at 336 h (in vivo [2]; [6]) [mg/kg] | LD50 at 336 h (in vivo [2]; read-out: LD50 i.v.) [µmol/kg] | selectivity ratio at 336 h (in vivo [2]) | Ratio p.o. LD50 TA/(.) (mice [3]) | LD50 at 336 h (in vivo [4]; [7]) [mg/kg] | LD50 at 336 h (in vivo [4]; read-out: LD50 p.o.) [µmol/kg] | major therapeutic effects ([5]; COAD and cardiac disease) | toxic side-effects [5]
1 | CCCn1c(=O)[nH]c(=O)c2[nH]cnc21 [D 4028, 3,7-dihydro-3-propyl-1H-purine-2,6-dione] | 2 | 2.5 | 1.24 | without convulsive effects | 157 ± 7.1 | 810 | 3.1 | 0.87 | 501 ± 54 | 2550 |  | 
2 | CC(C)Cn1c(=O)[nH]c(=O)c2[nH]cnc21 [D 4030, 3,7-dihydro-3-(2-methylpropyl)-1H-purine-2,6-dione] | 5 | 2 | 1.94 | without convulsive effects | 109 ± 5.9 | 520 | 2.8 | 1.53 | 304 ± 26 | 1450 |  | 
3 | Cn1c(=O)c2[nH]cnc2n(C)c1=O [Theophylline, reference compound] |  |  |  | in lethal doses produced tonic convulsions; also recorded: convulsions which theophylline does |  |  |  |  |  |  | relax bronchial smooth muscle and stimulate heart muscle | most common are nausea and gastric distress, most serious are convulsions, which may lead to death
4 | CCCCn1c(=O)[nH]c(=O)c2[nH]cnc21 [D 4031, 3-butyl-3,7-dihydro-1H-purine-2,6-dione] | 5 | 2 | 1.35 | without convulsive effects | 158 ± 8.8 | 750 | 2.6 | 1.14 | 408 ± 10.7 | 1950 |  | 
